Our source for the IC50 values is ChEMBL document CHEMBL1139394, “Piperidine dispiro-1,2,4-trioxane analogues” (Bioorg Med Chem Lett, 2008).

The experiment concerns Plasmodium falciparum. Briefly: Antimalarial activity against Plasmodium falciparum 3D7 infected human erythrocytes after 24 hrs by [3H]hypoxanthine uptake. The class given is functional, organism-based.

What is called IC50 is the midpoint of a concentration-inhibition curve. Higher therefore signals weaker potency in that assay. As to `O=S(=O)(c1ccccc1)N1CCC2(CC1)OCC1(OO2)C2CC3CC(C2)CC1C3` (stereo not given), the IC50 is more than 1000 nM.
In the case of `CCS(=O)(=O)N1CCC2(CC1)COC1(OO2)C2CC3CC(C2)CC1C3` (stereo not given) it was 180 nM; in that of `O=S(=O)(c1ccccc1)N1CCC2(CC1)COC1(OO2)C2CC3CC(C2)CC1C3` (stereo not given), 710 nM.
Turning to `CC(=O)N1CCC2(CC1)COC1(OO2)C2CC3CC(C2)CC1C3` (stereo not given), the IC50 was determined as 183 nM.
For `C1CC2(CCN1)COC1(OO2)C2CC3CC(C2)CC1C3` (stereo not given), half-maximal inhibition (IC50) was put at 121 nM.
`O=S(=O)(c1ccccc1)N1CCC2(CC1)OOC1(O2)C2CC3CC(C2)CC1C3` (stereo not given) displayed an IC50 of 6.22 nM.
For `CC(C)(C)OC(=O)N1CCC2(CC1)COC1(OO2)C2CC3CC(C2)CC1C3` (stereo not given), the IC50 stood at 198 nM.
Consider `O=S(=O)(c1ccccc1)N1CCC2(CC1)OOC1(OO2)C2CC3CC(C2)CC1C3`, for which the IC50 worked out at 10.7 nM.
`CO[C@H]1O[C@@H]2O[C@@]3(C)CC[C@H]4[C@H](C)CC[C@@H]([C@H]1C)[C@@]24OO3` [ARTEMETHER] returned an IC50 of 1.26 nM.
In the case of `O=C(OCC1c2ccccc2-c2ccccc21)N1CCC2(CC1)COC1(OO2)C2CC3CC(C2)CC1C3` (stereo not given) it was 174 nM.
